From article PMC11783601, “Analogue-Sensitive Inhibition of Histone Demethylases Uncovers Member-Specific Function in Ribosomal Protein Synthesis” (Journal of the American Chemical Society, 2025)
“Also recorded” adds a separate entry of the source.

Assays:
[1] = system: 47S rRNA precursor in HEK293T cells; assay: Fluorescence in situ hybridization (FISH) of 47S precursor rRNA; assay type: cell-based, human; settings: HEK293T cells expressing F185A
Protocol: We next examined the mechanistic link between KDM4A-mediated promoter demethylation and rRNA upregulation (Figure 7A). To confirm that KDM4A specifically stimulates rRNA synthesis, we performed fluorescence in situ hybridization (FISH) using a fluoresceine-attached short DNA complementary to the 47S rRNA precursor. Overexpression of wild type KDM4A and its as variant indeed led to increased expression of the precursor rRNA compared to that of the control vector (Figure 7B,C).
(Sigma B2883-25MG) for 30 seconds, washed with PBS and finally adhered to a slide with gelvatol. The cells were imaged at University of Pittsburgh Center for Biological Imaging on an Olympus Fluoview 1000 II, grant number 1S10OD019973-01 using excitation and emission wavelengths corresponding to that of Rhodamine. Images were analyzed on ImageJ open-source software and NIS elements software.
17. Analysis of rRNA expression in HEK293T cells using fluorescence in-situ hybridization HEK293-T cells (ATCC CRL-1573) were grown in a 24 well plate (Corning) on poly-D-lysine (Gibco A3890401) treated glass coverslips (ThermoScientific 12-545-81P) overnight and transfected the next day with 500 ng KDM4A WT/F185A or Empty Vector (EV) equivalent using 1:2 ug of Thermo Turbofect (FERR0531). […] Images were analyzed on ImageJ open-source software and NIS elements software. […]

[2] = HPLC stability of compound in assay buffer; assay type: physicochemical; settings: HPLC traces at t=0 hr. and t=5 hr. incubation; integrity confirmed by LC-MS
Protocol: Supplementary Figure S13. HPLC traces of NOL 6 at t=0 hr. (red) and t=5 hr. (blue) incubation
The compound integrity was further
Supplementary Figure S14. MALDI-TOF spectra for demethylase activity of wild type KDM4C
(A) and KDM4C-F187A mutant (B). In each case, topmost panel is assay without the cofactor
2OG (negative control), middle panel is assay with the cofactor (positive control) and the bottom
mutant completely at 50 µM concentration (B). The demethylase activity of F187A mutant is
(1 picture or pasted object on this page, not shown here)

SMILES	transcription of the 47S precursor rRNA [1]	stability of the compound in assay buffer [2]
CC(C)CC(NC(=O)C(=O)OCc1cccc(C(F)(F)F)c1)C(=O)O [6B, L-Leu TFMB-ester NOG]	significantly reduced; also recorded: decreased expression of pre-rRNA	–
CC(C)CC(NC(=O)C(=O)O)C(=O)O (centres unmarked) [compound 6, N-oxalyl leucine]	–	confirm the stability
